# Test results published in PMC7880690, “Chemical genetics and proteome-wide site mapping reveal cysteine MARylation by PARP-7 on immune-relevant protein targets” (eLife, 2021).
# How the values were obtained:
# [1] = biological target: T1, GFP-WT-PARP-7 (Homo sapiens, UniProt Q7Z3E1); assay: Labeling by orthogonal NAD+ analogs in HEK 293T lysates expressing GFP-WT-PARP-7; type: biochemical; conditions: HEK 293 T cell lysates, 100 µM NAD+ analog
# T1 construct: expressed in transfected cells; host or cells: HEK 293T
# T1 sequence (Q7Z3E1 1-657): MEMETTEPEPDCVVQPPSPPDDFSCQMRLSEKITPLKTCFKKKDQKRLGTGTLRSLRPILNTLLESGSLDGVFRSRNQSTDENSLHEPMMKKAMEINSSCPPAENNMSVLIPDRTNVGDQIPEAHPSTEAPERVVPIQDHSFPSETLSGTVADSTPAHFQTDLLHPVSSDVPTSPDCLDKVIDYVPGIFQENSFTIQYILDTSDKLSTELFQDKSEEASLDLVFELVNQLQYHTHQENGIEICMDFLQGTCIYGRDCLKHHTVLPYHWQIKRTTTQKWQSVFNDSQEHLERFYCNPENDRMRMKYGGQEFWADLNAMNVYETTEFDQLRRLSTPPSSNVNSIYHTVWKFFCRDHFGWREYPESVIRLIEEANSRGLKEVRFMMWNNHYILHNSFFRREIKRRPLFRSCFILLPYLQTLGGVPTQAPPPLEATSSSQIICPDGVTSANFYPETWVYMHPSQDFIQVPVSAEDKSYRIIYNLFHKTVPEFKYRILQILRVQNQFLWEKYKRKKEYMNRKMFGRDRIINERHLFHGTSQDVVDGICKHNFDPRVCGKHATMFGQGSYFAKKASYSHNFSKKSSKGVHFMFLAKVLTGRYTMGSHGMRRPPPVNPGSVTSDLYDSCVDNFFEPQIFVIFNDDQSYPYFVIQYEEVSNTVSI
# Excerpt: Figure 1. A chemical genetic strategy for identifying the direct MARylation targets of PARP-7. (a) Schematic of chemical genetic approach for identifying direct targets of PARP-7. (b) Crystal structure of human PARP1 bound to the non-hydrolyzable NAD^+ analog benzamide adenine dinucleotide (BAD). PDB: 6bhv. […] (c) Chemical structure of the clickable, orthogonal NAD^+ analogs. 5-Bn-2-e-NAD^+ is the optimized substrate for the floor position engineered PARP-7, IG-PARP-7. 5-Bn-6-a-NAD^+ was used in our previous studies by other floor position engineered PARPs (e.g. PARP14). (d) 5-Bn-2-e-NAD^+ is an efficient substrate for IG-PARP-7. HEK293T cells were transfected with either GFP-WT-PARP-7 (control) or GFP-IG-PARP-7. Cell lysates were prepared and incubated with either 5-Bn-2-e-NAD^+ or 5-Bn-6-a-NAD^+ (100 µM). Following copper-catalyzed click chemistry with biotin-azide, proteins were resolved by SDS-PAGE and biotinylated proteins were detected by Western blot detection using Streptavidin-HRP. Biotinylated proteins represent direct MARylation targets of PARP-7. Figure 1—figure supplement 1. Enrichment of PARP-7 MARylation targets and labeling of PARP-12 IG targets using a chemical genetic approach. (a) Labeling of PARP-7 MARylation targets was performed as described in Figure 1. Neutravidin agarose was used to enrich biotinylated proteins (i.e. MARylation targets). […]
# [2] = biological target: T2, PARP15cat (Homo sapiens, UniProt Q460N3); assay: ADP-ribosylation plate assay, PARP15cat
# T2 sequence (Q460N3 482-678 limits assumed): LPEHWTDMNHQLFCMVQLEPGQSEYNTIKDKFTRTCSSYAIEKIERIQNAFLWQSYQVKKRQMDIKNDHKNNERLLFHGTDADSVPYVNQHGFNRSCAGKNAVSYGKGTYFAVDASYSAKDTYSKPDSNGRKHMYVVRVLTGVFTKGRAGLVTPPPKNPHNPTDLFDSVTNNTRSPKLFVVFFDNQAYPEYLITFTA
# [3] = biological target: T3, PARP-7 (Homo sapiens, UniProt Q7Z3E1); conditions: 1 μM, HEK 293 T cells
# T3 sequence (Q7Z3E1 1-657): T1 sequence (Q7Z3E1 1-657)
Structure (SMILES),substrate for GFP-WT-PARP-7 [1],IC50 [2] [nM],inhibition of PARP-7-mediated trans-MARylation of PARP-13.2 [3]
"C#Cc1nc(N)c2ncn(C3OC(COP(=O)(O)OP(=O)([O-])OCC4OC([n+]5cc(Cc6ccccc6)cc(C(N)=O)c5)C(O)C4O)C(O)C3O)c2n1 (stereo not drawn) [5-Bn-2-e-NAD^+, 5-benzyl-2-ethynyl-NAD^+]",not a substrate,,
"N#Cc1ccc(N2CCN(C(=O)c3cc(Cc4n[nH]c(=O)c5ccccc45)ccc3F)CC2)nc1 [Phthal01, 6-(4-(2-fluoro-5-((4-oxo-3,4-dihydrophthalazin-1-yl)methyl)benzoyl)piperazin-1-yl)nicotinonitrile]",,2000 ± 300,completely inhibits
